Test [1] deals with T1, recombinant human Lp-PLA2 (Homo sapiens, UniProt Q13093).
T1 sequence (Q13093 22-441): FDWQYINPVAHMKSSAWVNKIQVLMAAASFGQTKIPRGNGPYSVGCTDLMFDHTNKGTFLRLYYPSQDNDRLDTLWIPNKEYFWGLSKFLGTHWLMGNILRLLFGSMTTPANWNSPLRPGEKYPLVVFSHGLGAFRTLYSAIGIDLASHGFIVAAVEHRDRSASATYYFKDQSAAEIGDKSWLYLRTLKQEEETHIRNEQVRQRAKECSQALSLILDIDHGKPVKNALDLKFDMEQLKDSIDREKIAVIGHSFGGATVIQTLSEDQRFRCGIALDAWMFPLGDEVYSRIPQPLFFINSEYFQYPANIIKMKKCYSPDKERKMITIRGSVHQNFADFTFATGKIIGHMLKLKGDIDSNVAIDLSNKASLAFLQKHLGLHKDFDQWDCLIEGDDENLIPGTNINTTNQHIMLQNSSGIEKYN
Briefly: Recombinant human Lp-PLA2 assay (rhLp-PLA2, PED6 assay). The settings on record: recombinant human Lp-PLA2, PED6 substrate; read-out: rhLp-PLA2 (PED6 assay) (pIC50) (converted). The test is classed as biochemical. An excerpt:
(1) Recombinant Human Lp-PLA2 Assay (rhLp-PLA2) (Also Referred to as “PED6” Assay)
N-((6-(2,4-dinitrophenyl)amino)-hexanoyl)-2-(4,4-difluoro-5,7-dimethyl-4-bora-3a,4a-diaza-s-indacene-3-pentanoyl)-1-hexadecanoyl-sn-glycero-3-phosphoethanolamine, triethylammonium salt (PED6) is a commercially available fluorescently-labeled phospholipid, which is commercially available from Invitrogene and Molecular Probes. There is a quenching […] and a Bodipy fluorescein (FL) group in the sn2 position. Upon cleavage with Lp-PLA2, the Bodipy FL group is liberated and then may result in an increase in fluorescence. Inhibitors of Lp-PLA2 therefore prevent this cleavage and no fluorescent increase is observed.
The PED6 assay was run as an unquenched 10 μL assay. The source plate containing the compounds to be tested was prepared by making 1:3 (by volume) serial dilution of the compounds within DMSO on 384-well microplate. Then, 0.01 μL of the compounds on compound source plate were transferred into 384 well Greiner 784076 (black) plates using ECHO liquid dispenser. 5 μL of recombinant human Lp-PLA2 enzyme (4 nM (or 110 pM) rhLp-PLA2 in assay buffer of 50 mM HEPES, pH 7.4, 150 mM NaCl, 1 mM CHAPS) was added to each well of the plate. Plates were centrifuged for 10 sec at 500 rpm. After 30 minutes preincubation, 5 μL of substrate (4 μM (or 5 μM) PED6 [from 5 mM DMSO stock] in assay buffer of 50 mM HEPES, pH 7.4, 150 mM NaCl, 1 mM CHAPS) was added to 384 well Greiner 784076 (black) plates. Plates were centrifuged for 10 sec at 500 rpm. The plate was covered to protect it from light and incubated for 20 min at room temperature. The plates were read for fluorescence intensity at ex: 480/em: 540 using ViewLux microplate imager for Envision spectrofluroimeters. PIC50 data, curve and QC analysis was conducted by using XL fit module in Excel.

Another test concerns the target T2, Lp-PLA2 in human plasma (Homo sapiens, UniProt Q13093).
T2 construct: from tissue; host or cells: pooled human plasma
T2 sequence (Q13093 22-441): T1 sequence (Q13093 22-441)
The test is described as follows: Lp-PLA2 human plasma assay (Thio-PAF assay). As to conditions: pooled human plasma; read-out: pIC50 in the thio-PAF assay (converted). The test is classed as biochemical. An excerpt:
(3) Lipoprotein-Associated Phospholipase A2 (Lp-PLA2) Human Plasma Assay (Also Referred to as “Thio-PAF Assay”)
The human plasma assay utilizes a thioester analog of PAF (phosphatidylcholine), where hydrolysis yields to the formation of a phospholipid containing a free thiol group. The amount of thiol is quantitated continuously by reacting with CPM (7-diethylamino-3-(4′-maleimidylphenyl)-4-methylcoumarin), a maleimide which increases in fluoresence after Michael addition of thiols. This assay may detect the activity of Lp-PLA2 in human plasma, as determined by specific inhibition by Lp-PLA2 inhibitors.
The thio-PAF assay was run as a quenched 15 μL assay. Compounds source plate was prepared by making 1:3 (by volume) serial dilution of the compounds into pure DMSO on 384-well microplate. 0.01 μL of compounds on compound source plate were transferred to 384 well Greiner 784076 (black) low-volume plates by ECHO liquid dispenser. 8 μL pooled human plasma, which was previously aliquoted and frozen, was added. Plates were centrifuged for 10 sec at 500 rpm. After 30 minutes preincubation, 2 μL of substrate solution comprising 2.5 mM 2-thio-PAF [from ethanol stock], 32 μM CPM [from a DMSO stock] and 3.2 mM NEM (N-ethylmaleimide) [made fresh daily in DMSO] in assay buffer of 50 mM HEPES, pH 7.4, 150 mM NaCl, 1 mM CHAPS was added to 384 well Greiner 784076 (black) low-volume plates by BRAVO liquid handling station. After 2 mins, reaction was quenched with 5 μL of 5% aqueous trifluoroacetic acid (TFA). Plates were covered to protect from light and incubated for 40 min at room temperature. Plates were read at ex: 380/em: 485 using Envision microplate reader. PIC50 data, curve and QC analysis were conducted by using XLFit module in Excel.

With `O=C(CN1CCCn2c1cc(OCc1ccc(F)c(F)c1)nc2=O)N1CCC(F)(F)CC1` [Example E20, 8-((3,4-difluorobenzyl)oxy)-1-(2-(4,4-difluoropiperidin-1-yl)-2-oxoethyl)-3,4-dihydro-1H-pyrimido[1,6-a]pyrimidin-6(2H)-one], the IC50 is 0.2 nM in test [1] and ≤ 100 nM on Lp-PLA2 in human plasma. With `O=C(CN1CCCn2c1cc(OCc1ccc(F)c(F)c1)nc2=O)N1CCC(F)CC1` [Example E23, 8-((3,4-difluorobenzyl)oxy)-1-(2-(4-fluoropiperidin-1-yl)-2-oxoethyl)-3,4-dihydro-1H-pyrimido[1,6-a]pyrimidin-6(2H)-one], the values for the IC50 (in test [1]; on Lp-PLA2 in human plasma) were 0.794 nM and ≤ 100 nM, respectively. `N#Cc1cc(COc2cc3n(c(=O)n2)CCCN3C2CC2)ccc1Oc1ccc(Cl)c(C(F)(F)F)c1` [Example E11, 2-(4-chloro-3-(trifluoromethyl)phenoxy)-5-(((1-cyclopropyl-6-oxo-2,3,4,6-tetrahydro-1H-pyrimido[1,6-a]pyrimidin-8-yl)oxy)methyl)benzonitrile]: the IC50 in test [1] is 0.794 nM; on Lp-PLA2 in human plasma, ≤ 100 nM. Take `O=C(CN1CCCn2c1cc(OCc1cc(F)c(F)c(F)c1)nc2=O)N1CCOCC1` [Example E16, 1-(2-morpholino-2-oxoethyl)-8-((3,4,5-trifluorobenzyl)oxy)-3,4-dihydro-1H-pyrimido[1,6-a]pyrimidin-6(2H)-one]: the IC50 in test [1] was 0.501 nM; on Lp-PLA2 in human plasma, ≤ 100 nM. On to `CCCNC(=O)CN1CCCn2c1cc(OCc1cc(F)c(F)c(F)c1)nc2=O` [Example E24, 2-(6-oxo-8-((3,4,5-trifluorobenzyl)oxy)-2,3,4,6-tetrahydro-1H-pyrimido[1,6-a]pyrimidin-1-yl)-N-propylacetamide], for which, on Lp-PLA2 in human plasma, the IC50 is ≤ 100 nM. As for `CN1CCN(C(=O)CN2CCCn3c2cc(OCc2ccc(F)c(F)c2)nc3=O)CC1` [Example E19, 8-((3,4-difluorobenzyl)oxy)-1-(2-(4-methylpiperazin-1-yl)-2-oxoethyl)-3,4-dihydro-1H-pyrimido[1,6-a]pyrimidin-6(2H)-one], the IC50 in test [1] is 0.316 nM; on Lp-PLA2 in human plasma, ≤ 100 nM. For the molecule `O=c1nc(OCc2ccc(F)c(F)c2)cc2n1CCCN2Cc1ccccc1` [Example E1, 1-benzyl-8-((3,4-difluorobenzyl)oxy)-3,4-dihydro-1H-pyrimido[1,6-a]pyrimidin-6(2H)-one], the IC50 at Lp-PLA2 in human plasma was ≤ 100 nM. Regarding `O=C(CN1CCCn2c1cc(OCc1ccc(F)c(F)c1)nc2=O)N1CCCC1` [Example E18, 8-((3,4-difluorobenzyl)oxy)-1-(2-oxo-2-(pyrrolidin-1-yl)ethyl)-3,4-dihydro-1H-pyrimido[1,6-a]pyrimidin-6(2H)-one], the IC50 on Lp-PLA2 in human plasma is ≤ 100 nM. Take `O=c1nc(OCc2ccc(F)c(F)c2)cc2n1CCCN2Cc1ccc(Cl)cc1` [Example E2, 1-(4-chlorobenzyl)-8-((3,4-difluorobenzyl)oxy)-3,4-dihydro-1H-pyrimido[1,6-a]pyrimidin-6(2H)-one]: in test [1], the IC50 was 0.631 nM.

Take `O=C(CN1CCCn2c1cc(OCc1ccc(F)c(F)c1)nc2=O)N1CCOCC1` [Example E22, 8-((3,4-difluorobenzyl)oxy)-1-(2-morpholino-2-oxoethyl)-3,4-dihydro-H-pyrimido[1,6-a]pyrimidin-6(2H)-one]: the IC50 in test [1] is 0.794 nM; on Lp-PLA2 in human plasma it was ≤ 100 nM. With `O=C(CN1CCCn2c1cc(OCc1cc(F)c(F)c(F)c1)nc2=O)N1CCCC1` [Example E14, 1-(2-oxo-2-(pyrrolidin-1-yl)ethyl)-8-((3,4,5-trifluorobenzyl)oxy)-3,4-dihydro-1H-pyrimido[1,6-a]pyrimidin-6(2H)-one], the IC50 on Lp-PLA2 in human plasma is ≤ 100 nM. Take `CCCNC(=O)CN1CCCn2c1cc(OCc1ccc(F)c(F)c1)nc2=O` [Example E13, 2-(8-((3,4-difluorobenzyl)oxy)-6-oxo-2,3,4,6-tetrahydro-1H-pyrimido[1,6-a]pyrimidin-1-yl)-N-propylacetamide]: the results for the IC50 (in test [1]; on Lp-PLA2 in human plasma) were 3.16 nM and ≤ 100 nM, respectively. As to `COc1ccc(CN2CCCn3c2cc(OCc2ccc(F)c(F)c2)nc3=O)cc1` [Example E4, 8-((3,4-difluorobenzyl)oxy)-1-(4-methoxybenzyl)-3,4-dihydro-1H-pyrimido[1,6-a]pyrimidin-6(2H)-one], the IC50 in test [1] was 1 nM; on Lp-PLA2 in human plasma, ≤ 100 nM. `COc1cccc(CN2CCCn3c2cc(OCc2ccc(F)c(F)c2)nc3=O)c1` [Example E6, 8-((3,4-difluorobenzyl)oxy)-1-(3-methoxybenzyl)-3,4-dihydro-1H-pyrimido[1,6-a]pyrimidin-6(2H)-one]: the IC50 in test [1] was 1.58 nM; at Lp-PLA2 in human plasma it was ≤ 100 nM. In the same order, the values of `O=c1nc(OCc2ccc(Oc3ccc(Cl)c(C(F)(F)F)c3)c(F)c2)cc2n1CCCN2C1CC1` [Example E8, 8-((4-(4-chloro-3-(trifluoromethyl)phenoxy)-3-fluorobenzyl)oxy)-1-cyclopropyl-3,4-dihydro-1H-pyrimido[1,6-a]pyrimidin-6(2H)-one] are 0.501 nM and ≤ 100 nM.

Turning to `O=c1nc(OCc2ccc(Oc3cccc(C(F)(F)F)c3)c(F)c2)cc2n1CCCN2C1CC1` [Example E9, 1-cyclopropyl-8-((3-fluoro-4-(3-(trifluoromethyl)phenoxy)benzyl)oxy)-3,4-dihydro-1H-pyrimido[1,6-a]pyrimidin-6(2H)-one], the IC50 at Lp-PLA2 in human plasma was ≤ 100 nM. As to `O=c1nc(OCc2ccc(F)c(F)c2)cc2n1CCCN2Cc1ccc(F)cc1` [Example E3, 8-((3,4-difluorobenzyl)oxy)-1-(4-fluorobenzyl)-3,4-dihydro-1H-pyrimido[1,6-a]pyrimidin-6(2H)-one], the IC50 at Lp-PLA2 in human plasma is ≤ 100 nM. Regarding `O=C(CN1CCCn2c1cc(OCc1ccc(F)c(F)c1)nc2=O)N1CCCCC1` [Example E21, 8-((3,4-difluorobenzyl)oxy)-1-(2-oxo-2-(piperidin-1-yl)ethyl)-3,4-dihydro-H-pyrimido[1,6-a]pyrimidin-6(2H)-one], on Lp-PLA2 in human plasma, the IC50 is ≤ 100 nM. For `CNC(=O)CN1CCCn2c1cc(OCc1ccc(F)c(F)c1)nc2=O` [Example E17], the IC50 at Lp-PLA2 in human plasma was ≤ 100 nM.

The values above are taken from US9296755B2, “3,4-dihydro-1H-pyrimido[1,6-a]pyrimidin-6(2H)-one compounds and their therapeutic applications” (GlaxoSmithKline Intellectual Property Development Limited, priority 2013, dated 2016).
